The subject of the experiment is Utrophin A promoter linked to a luciferase reporter gene. Description: Luciferase reporter assay (murine H2K cells), H2K/mdx/Utro A reporter cell line. In kind it is cell-based. The following applies: 48 h; test compound concentration 10 μM; mdx mouse H2K Utrophin A reporter cells; read-out: Activity (luciferase level relative to control). As for the experimental part:
Luciferase Reporter Assay (Murine H2K Cells)
The cell line used for the screen is an immortalized mdx mouse H2K cell line that has been stably transfected with a plasmid containing ≈5 kb fragment of the Utrophin A promoter including the first untranslated exon linked to a luciferase reporter gene.
Under conditions of low temperature and interferon containing media, the cells remain as myoblasts. These are plated into 96 well plates and cultured in the presence of compound for three days. The level of luciferase is then determined by cell lysis and reading of the light output from the expressed luciferase gene utilising a plate luminometer.
Luciferase Assay for 96 Well Plates
The H2K/mdx/Utro A reporter cell line cells were plated out into 96 well plates (Falcon 353296, white opaque) at a density of approximately 5000 cells/well in 190 μl normal growth medium. The plates were then incubated at 33° C. in the presence of 10% CO2 for 24 hrs.
Compounds were dosed by adding 10 μl of diluted compound to each well giving a final concentration of 10 μM (where a different final concentration was required, the amount of compound solution added was amended accordingly). The plates were then incubated for a further 48 hrs. Cells were then lysed in situ following the manufacture's protocols (Promega Steady-Glo Luciferase Assay System(E2520). Then counted for 10 seconds using a plate luminometer (Victor1420).
Compounds for screening were stored at −20° C. as 10 mM stocks in 100% DMSO until required.
Biological activity as assessed using the luciferase reporter assay in murine H2K cells, and the results are shown in Table 1, which also lists the concentration of the test compound solution in μM.
As to `CON(C)S(=O)(=O)c1ccc(Cn2nc(C(=O)Nc3nc4ccccc4s3)c3ccccc32)cc1` [Compound 1, N-(benzo[d]thiazol-2-yl)-1-(4-(N-methoxy-N-methylsulfamoyl)benzyl)-1H-indazole-3-carboxamide], the activity at 10 µM was below 200%. In the case of `COc1ccc(OC)c(NC(=O)Nc2nn(Cc3ccc(COc4ccc5c(c4)OCO5)cc3)c3ccc(C(F)(F)F)cc23)c1` [Compound 2, 1-(1-(4-((benzo[d][1,3]dioxol-5-yloxy)methyl)benzyl)-5-(trifluoromethyl)-1H-indazol-3-yl)-3-(2,5-dimethoxyphenyl)urea] it was below 200%. The value for `CS(=O)(=O)c1ccc(Cn2nc(C(=O)Nc3nccs3)c3ccccc32)cc1` [Compound 3, 1-(4-(methylsulfonyl)benzyl)-N-(thiazol-2-yl)-1H-indazole-3-carboxamide] was below 200%; that for `CS(=O)(=O)c1ccc(Cn2nc(C(=O)Nc3ccc4c(c3)OCO4)c3ccccc32)cc1` [Compound 4, N-(benzo[d][1,3]dioxol-5-yl)-1-(4-(methylsulfonyl)benzyl)-1H-indazole-3-carboxamide] was 301 to 400%.

Regarding `COc1ccc(NC(=O)c2nn(CCCOc3ccccc3)c3ccccc23)cc1` [Compound 5, N-(4-methoxyphenyl)-1-(3-phenoxypropyl)-1H-indazole-3-carboxamide], the activity at 10 µM was below 200%. In the case of `C#CCN(C)S(=O)(=O)c1ccc(Cn2nc(C(=O)Nc3ccc(N4CCCCC4)cc3)c3ccccc32)cc1` [Compound 6, 1-(4-(N-methyl-N-(prop-2-ynyl)sulfamoyl)benzyl)-N-(4-(piperidin-1-yl)phenyl)-1H-indazole-3-carboxamide], the activity at 10 µM lay in the range of 301 to 400%. On to `CCN(CC)S(=O)(=O)c1ccc(Cn2nc(C(=O)Nc3nc4ccccc4s3)c3ccccc32)cc1` [Compound 7, N-(benzo[d]thiazol-2-yl)-1-(4-(N,N-diethylsulfamoyl)benzyl)-1H-indazole-3-carboxamide], for which the activity at 10 µM was below 200%. The value for `COc1ccc2c(c1)c(C(=O)Nc1ccc(N3CCCCC3)cc1)nn2Cc1ccc(S(=O)(=O)N(C)OC)cc1` [Compound 8, 5-methoxy-1-(4-(N-methoxy-N-methylsulfamoyl)benzyl)-N-(4-(piperidin-1-yl)phenyl)-1H-indazole-3-carboxamide] was below 200%. As for `O=C(Nc1cccc(F)c1)Nc1nn(Cc2ccc(COc3ccc4c(c3)OCO4)cc2)c2ccc(C(F)(F)F)cc12` [Compound 9, 1-(1-(4-((benzo[d][1,3]dioxol-5-yloxy)methyl)benzyl)-5-(trifluoromethyl)-1H-indazol-3-yl)-3-(3-fluorophenyl)urea], the activity at 10 µM was below 200%. Regarding `CCN(CC)S(=O)(=O)c1ccc(Cn2nc(C(=O)Nc3ccc(N4CCCCC4)cc3)c3ccccc32)cc1` [Compound 10, 1-(4-(N,N-diethylsulfamoyl)benzyl)-N-(4-(piperidin-1-yl)phenyl)-1H-indazole-3-carboxamide], the activity at 10 µM was in the range of 201 to 300%. In the case of `COC(=O)c1ccc(NC(=O)Nc2nn(Cc3ccc(COc4cccc(OC)c4)cc3)c3ccccc23)cc1` [Compound 11, methyl 4-(3-(1-(4-((3-methoxyphenoxy)methyl)benzyl)-1H-indazol-3-yl)ureido)benzoate] it was below 200%; in that of `COc1cccc(OC)c1NC(=O)Nc1nn(Cc2ccc(C(F)(F)F)cc2)c2ccccc12` [Compound 12, 1-(2,6-dimethoxyphenyl)-3-(1-(4-(trifluoromethyl)benzyl)-1H-indazol-3-yl)urea], below 200%. For the molecule `Cc1ccc2c(c1)c(NC(=O)Nc1ccccc1C(C)C)nn2Cc1cc2c(cc1Cl)OCO2` [Compound 13, 1-(1-((6-chlorobenzo[d][1,3]dioxol-5-yl)methyl)-5-methyl-1H-indazol-3-yl)-3-(2-isopropylphenyl)urea], the activity at 10 µM is below 200%.

Take `O=C(Nc1ccc(N2CCCCC2)cc1)c1nn(CCCOc2ccccc2)c2ccccc12` [Compound 14, 1-(3-phenoxypropyl)-N-(4-(piperidin-1-yl)phenyl)-1H-indazole-3-carboxamide]: the activity at 10 µM lay within 301 to 400%. The value for `Cc1cccc(NC(=O)Nc2nn(Cc3ccc(C(F)(F)F)cc3)c3ccccc23)c1` [Compound 15, 1-m-tolyl-3-(1-(4-(trifluoromethyl)benzyl)-1H-indazol-3-yl)urea] was below 200%.

As to `O=C(Nc1nccs1)c1nn(CCCOc2ccccc2)c2ccccc12` [Compound 16, 1-(3-phenoxypropyl)-N-(thiazol-2-yl)-1H-indazole-3-carboxamide], the activity at 10 µM is above 401%. On to `O=C(Nc1nc2ccccc2s1)c1nn(Cc2ccc(C(=O)N3CCOCC3)cc2)c2ccccc12` [Compound 17, N-(benzo[d]thiazol-2-yl)-1-(4-(morpholine-4-carbonyl)benzyl)-1H-indazole-3-carboxamide], for which the activity at 10 µM lay in the range of 201 to 300%. `CS(=O)(=O)c1ccc(Cn2nc(C(=O)Nc3ccc(N4CCCCC4)cc3)c3ccccc32)cc1` [Compound 18, 1-(4-(methylsulfonyl)benzyl)-N-(4-(piperidin-1-yl)phenyl)-1H-indazole-3-carboxamide]: the activity at 10 µM was in the range of 201 to 300%. In the case of `CC(C)c1ccc(NC(=O)c2nn(Cc3ccc(C(=O)N4CCOCC4)cc3)c3ccccc23)cc1` [Compound 19, N-(4-isopropylphenyl)-1-(4-(morpholine-4-carbonyl)benzyl)-1H-indazole-3-carboxamide] it was above 401%; in that of `CN(Cc1ccccc1)C(=O)c1ccc(Cn2nc(C(=O)Nc3ccc(C(F)(F)F)cc3)c3ccccc32)cc1` [Compound 20, 1-(4-(benzyl(methyl)carbamoyl)benzyl)-N-(4-(trifluoromethyl)phenyl)-1H-indazole-3-carboxamide], below 200%. The value for `C#CCN(C)S(=O)(=O)c1ccc(Cn2nc(C(=O)Nc3ccc4c(c3)OCO4)c3ccccc32)cc1` [Compound 21, N-(benzo[d][1,3]dioxol-5-yl)-1-(4-(N-methyl-N-(prop-2-ynyl)sulfamoyl)benzyl)-1H-indazole-3-carboxamide] was above 401%; that for `CC(C)c1ccc(NC(=O)c2nn(Cc3ccc(C(=O)N(C)Cc4ccccc4)cc3)c3ccccc23)cc1` [Compound 22, 1-(4-(benzyl(methyl)carbamoyl)benzyl)-N-(4-isopropylphenyl)-1H-indazole-3-carboxamide] was below 200%.

Turning to `CS(=O)(=O)c1ccc(Cn2nc(C(=O)Nc3ccc(OC(F)(F)F)cc3)c3ccccc32)cc1` [Compound 23, 1-(4-(methylsulfonyl)benzyl)-N-(4-(trifluoromethoxy)phenyl)-1H-indazole-3-carboxamide], the activity at 10 µM was below 200%.

Take `CN(c1ccccc1)S(=O)(=O)c1ccc(Cn2nc(C(=O)NOCc3ccccc3)c3ccccc32)cc1` [Compound 24, N-(benzyloxy)-1-(4-(N-methyl-N-phenylsulfamoyl)benzyl)-1H-indazole-3-carboxamide]: the activity at 10 µM was below 200%. As for `O=C(Nc1ccc2c(c1)OC(F)(F)O2)c1nn(Cc2ccc(C(=O)N3CCOCC3)cc2)c2ccccc12` [Compound 25, N-(2,2-difluorobenzo[d][1,3]dioxol-5-yl)-1-(4-(morpholine-4-carbonyl)benzyl)-1H-indazole-3-carboxamide], the activity at 10 µM is above 401%.
